{"source": "patent US20220098197A1", "about": "“SALTS OF HETEROCYCLIC COMPOUND AND USE THEREOF” (priority 2019, published 2022)", "key": {"[1]": {"system": "LPS-induced ALI mice", "test": "LPS-induced ALI model: lung weight coefficient", "assay_type": "in vivo, Balb/c mice", "conditions": "CT-NA 10 or 30 mg/kg (P<0.01, dose-dependent), Dex 1 mg/kg; 24 hrs after LPS", "experimental": "Specific pathogen-free (SPF) Balb/c mice (♂/♀; 20-26 g; 8 weeks old) were purchased from Shanghai SIPPR-BK Experimental Animal Co., Ltd. Mice were kept in an isolated ventilated cage in an environment of 40-60% humidity, 24±2° C., and 12 hrs/12 hrs dark-light cycle, and had free access to food and water. The method for preparing the LPS-induced ALI model was simply described as follows. The mice were randomly divided into a control group (12 mice) and an LPS group (48 mice). The LPS group (48 mice) was further divided into four subgroups (12 mice in each subgroup). […] 24 hrs after LPS challenge, the oxygen saturation (SO2) of all mice was measured by a Moor VMS-OXY™ instrument which measured SO2 (%) in the microcirculation at the wavelength range of 500 to 650 nm. […]\nThe mice were euthanized to expose the trachea, and then the right lungs were lavaged three times with 0.4 mL/time of sterile normal saline containing bovine serum albumin (BSA) and 5000 IU/L heparin to collect the BALF via tracheal tube. […] The removed lung tissues were weighted after aspirating the surface blood, and the lung weight coefficient was calculated. The lung weight coefficient was an indicator of pulmonary edema, and it was measured by dividing the individual lung weight of each mouse by its total body weight."}, "[2]": {"system": "LPS-induced ALI mice", "test": "LPS-induced ALI model: lung MPO activity assay", "assay_type": "in vivo, Balb/c mice", "conditions": "CT-NA 10 or 30 mg/kg (P<0.01, dose dependence), Dex 1 mg/kg (P<0.01)", "protocol": "Specific pathogen-free (SPF) Balb/c mice (♂/♀; 20-26 g; 8 weeks old) were purchased from Shanghai SIPPR-BK Experimental Animal Co., Ltd. Mice were kept in an isolated ventilated cage in an environment of 40-60% humidity, 24±2° C., and 12 hrs/12 hrs dark-light cycle, and had free access to food and water. The method for preparing the LPS-induced ALI model was simply described as follows. The mice were randomly divided into a control group (12 mice) and an LPS group (48 mice). The LPS group (48 mice) was further divided into four subgroups (12 mice in each subgroup). The unanaesthetized mice in the four subgroups of LPS were intragastrically administered with normal saline (NS), CT-NA at 10 mg/kg or 30 mg/kg, and Dex at 1 mg/kg, respectively. One hour later, the mice were anesthetized with sodium pentobarbital (intraperitoneal injection at 40 mg/kg), and then subjected to intratracheal instillation of NS to control group and LPS (4 mg/kg) to all LPS subgroups. […] 24 hrs after LPS challenge, the oxygen saturation (SO2) of all mice was measured by a Moor VMS-OXY™ instrument which measured SO2 (%) in the microcirculation at the wavelength range of 500 to 650 nm.\nThe MPO activity assay procedure was as follows. […] Then MPO activity was determined by measuring the changes in absorbance at 460 nm via the standard curves by using MPO assay kits."}, "[3]": {"system": "RAW264.7 macrophages", "test": "RT-PCR analysis, LPS- or PGD2-stimulated RAW264.7", "assay_type": "cell-based, mouse", "conditions": "CT-NA 10 and 100 μM, P<0.05 or P<0.01", "experimental": "For ELISA and RT-PCR, RAW 264.7 macrophages were acclimated to two 12-well plates at 70-80% confluence. Thereafter, the medium in the 12-well plate was replaced with serum-free RPMI-1640 medium for 10-12 hrs and then exposed to CT-NA (10 and 100 μM) for 1 hour. One hour later, one 12-well plate was treated with LPS (100 ng/ml) for 24 hrs, and the other was treated with PGD2 (10 μM) for 24 hrs. After the treatment, the supernatant of the treated cells was collected to measure the protein levels of TNF-α, IL-1β, IL-6, and KC using ELISA kits according to the method of the instructions. Subsequently, RNA samples from each treated plate were extracted and reverse-transcripted into cDNA with HiScript5xQRTSuperMix, and then subjected to RT-PCR using BioRad CFX96 Touch™ real-time PCR detection system (San Diego, Calif.). Similarly, total RNAs extracted from treated isolated peritoneal macrophages were subjected to analyze the mRNA levels of IL-10, TNF-α, IL-6 and KC. The primers used in the RT-PCR reaction were shown in Table 2. β-actin was used as an internal control. The RT-PCR reactions were triplicated and the relative expression of target mRNA was normalized by the respective β-actin."}, "[4]": {"system": "NF-κB signalling pathway in RAW264.7 macrophages", "test": "Western blotting of NF-κB signalling pathway, RAW264.7", "assay_type": "cell-based, mouse", "conditions": "CT-NA 0.5, 1.0, 10, or 100 μM, LPS (100 ng/ml)", "experimental": "The method for total protein extraction and Western blotting determination was as follows. The lung tissue was homogenized in RIPA buffer (0.5M Tris-HCl, pH 7.4, 1.5M NaCl, 2.5% deoxycholic acid, 10% NP-40, 10 mM EDTA) containing protease and phosphatase inhibitors (Sigma-Aldrich, St. Louis, Mo.). RAW264.7 macrophages were seeded into two 6-well plates at 70-80% confluence. After overnight starvation with serum-free RPMI-1640 medium, RAW264.7 macrophages were pretreated with CT-NA (0.5, 1, 10 and 100 μM) for 1 hour. Thereafter, one 6-well plate was treated with LPS (100 ng/ml) for 1 hour, and the other was treated with PGD2 (10 μM) for 1 hour. After washing three times with PBS, the cells were directly lysed for 30 minutes with shaking in RIPA buffer containing protease and phosphatase inhibitors in an ice environment. Then, the lysate was centrifuged at 12,300×g for 15 minutes at 4° C., and the supernatant was collected. […] was performed to measure protein concentration. Equal amounts of protein (30 μg) were resolved on 12% SDS-PAGE and transferred to 0.45 um polyvinylidene fluoride (PVDF) membranes (Millipore, Bedford, Mass.). The membranes were blocked with 5% (wt/vol) skimmed milk powder at room temperature for 1-2 hrs to reduce non-specific binding. […]"}}}
{"smiles": "CN([C@@H]1CCc2c(CC(=O)[O-])c3cccnc3n2C1)S(=O)(=O)c1ccc(F)cc1.[Na+]", "note": "[Sodium salt hydrate]", "values": [{"measurement": "lung wet weight coefficient", "setting": "[1]", "value": "notably reduced"}, {"measurement": "MPO activity in lung tissues", "setting": "[2]", "value": "remarkably reduced"}, {"measurement": "mRNA expressions of IL-1β, TNF-α, IL-6 and KC, LPS-stimulated", "setting": "[3]; LPS, dose-dependent", "value": "reduced"}, {"measurement": "mRNA expressions of IL-1β, TNF-α, IL-6 and KC, PGD2-stimulated", "setting": "[3]; PGD2, dose-dependent", "value": "reduced"}, {"measurement": "degradation of IκBα and P65 induced by LPS", "setting": "[4]", "value": "strongly reversed"}, {"measurement": "LPS-induced IκBα and P65 activation", "setting": "[4]; dose-dependent", "value": "reduced"}]}
